Test results from US11384060B2, “Amide compounds and use thereof” (ALPHALA CO., LTD., priority 2017, dated 2022).
Like-named read-outs stand apart in the source and are kept apart here.

Legend:
glucagon receptor (GCGR) = target: T1, glucagon receptor (GCGR) (Homo sapiens, UniProt P47871); experiment: I125-glucagon binding assay (competition, GCGR membrane fractions)
T1 construct: expressed in transfected cells; host or cells: CHO-K1 cells overexpressing GCGR (membrane fractions)
Protocol: I^125-Glucagon Binding Assay
The binding affinity of each compound was evaluated by a competition assay with I^125-glucagon. GCGR membrane fractions were obtained from GCGR overexpressed CHO-K1 cells as a stock of 1 mg/ml concentration. To evaluate the IC50 of compounds binding to GCGR, GCGR membrane fractions were treated with compounds with a serial dilution. The membrane fractions were diluted to 7.5 microgram per well in 70 microliter assay buffer contained 50 mM Tris pH 7.4 and 0.5% (w/v) bovine serum albumin and added into 96 wells plate. The membrane fractions were then mixed with 10 microliter diluted compounds. After 5 minutes pre-incubation, 20 microliter I^125 labeled glucagon (Perkin Elmer) was added into each well at the final concentration of 0.0625 nM. The assay mixtures were incubated at 25° C. for 30 minutes and then transferred onto the Millipore MultiScreen GF/B Plate coated with 0.5% (w/v) Polyethyleneimine. The filter plate was washed with wash buffer contained 50 mM Tris pH 7.4 for 2 times, 300 microliter each time. The residual isotope was detected by Hidex CHAMELEON V micro-beta counter and the IC50 value of each compound binding to GCGR was calculated with non-linear regression.

[1] = target: T2, glucagon receptor (GCGR) overexpressed CHO-K1 cells or human primary hepatocytes (Homo sapiens, UniProt P47871); experiment: Glucagon cAMP inhibition assay (Cisbio cAMP Dynamic 2 HTRF); assay type: cell-based
T2 construct: expressed in transfected cells; host or cells: GCGR overexpressed CHO-K1 cells or human primary hepatocytes (endogenous receptor)
Protocol: Glucagon cAMP Inhibition Assay
Downstream secondary messenger cAMP induced by glucagon was detected by Cisbio cAMP Dynamic 2 kit. Testing compounds were each prepared as a dimethyl sulfoxide (DMSO) solution at the concentration of 10 mM. To evaluate the potency of compounds in inhibiting the cAMP production, glucagon receptor (GCGR) overexpressed CHO-K1 cells or human primary hepatocytes were treated with compounds with a serial dilution. The cells were re-suspended in Hank's Balanced Salt solution (HBSS) contained 0.1% (w/v) bovine serum albumin and 800 nM 3-isobutyl-1-methylxanthine (IBMX) and seeded into low volume, 384 wells white plate. The diluted compounds were then added into the plate for 30 minutes pre-incubation where the final DMSO concentration was 1%. The cells were stimulated with glucagon at the concentration equaled to EC50 (an indicium of the concentration of a drug that gives half-maximal response) for 30 minutes at room temperature. After incubation, lysis buffer contain cAMP antibody and fluorescence acceptor were added into each well for additional 60 minutes incubation. Results were recorded by Molecular Devices SpectraMax Paradigm with the HTRF Detection Cartridges and the IC50 value of each compound in inhibiting the cAMP production was calculated with non-linear regression based on the amount of cAMP production.

[2] = competition with I125-glucagon 0.0625 nM, membrane fractions of GCGR overexpressed CHO-K1 cells
[3] = inhibition of glucagon (EC50 concentration) induced cAMP production

T1 sequence (P47871 26-477): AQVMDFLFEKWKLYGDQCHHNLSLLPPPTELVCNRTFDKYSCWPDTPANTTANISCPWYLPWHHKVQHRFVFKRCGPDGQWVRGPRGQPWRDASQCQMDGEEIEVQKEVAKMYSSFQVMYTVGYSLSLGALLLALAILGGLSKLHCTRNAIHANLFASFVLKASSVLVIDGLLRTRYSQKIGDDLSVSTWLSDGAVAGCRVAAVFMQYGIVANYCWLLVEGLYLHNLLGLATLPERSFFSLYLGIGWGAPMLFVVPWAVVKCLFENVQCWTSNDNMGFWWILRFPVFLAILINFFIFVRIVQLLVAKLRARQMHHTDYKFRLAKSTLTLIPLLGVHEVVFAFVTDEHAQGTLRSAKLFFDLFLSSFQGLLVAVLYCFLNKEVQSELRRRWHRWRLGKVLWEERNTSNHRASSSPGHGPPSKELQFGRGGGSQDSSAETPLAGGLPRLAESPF
T2 sequence (P47871 26-477): as above

Structure (SMILES)	IC50 (glucagon receptor (GCGR); [2])	IC50 cAMP [1, 3]	other results
O=C(O)CCNC(=O)c1ccc(NC(Cc2ccccc2)C(=O)Nc2ccc(C(F)(F)F)cc2)cc1 (stereo in doubt) [Compound 24-4, (S)-3-(4-((1-oxo-3-phenyl-1-((4-(trifluoromethyl)phenyl)amino)propan-2-yl)amino)benzamido)propanoic Acid]			IC50 (glucagon receptor (GCGR)): 6020 nM; IC50 cAMP ([1]; uM): >10 µM
CCOC(=O)CCNC(=O)c1ccc(N[C@H](COc2ccc(-c3cc4ccccc4o3)cc2)C(C)C)cc1 [Compound 1-1, Ethyl(S)-3-(4-((1-(4-(benzofuran-2-yl)phenoxy)-3-methylbutan-2-yl)amino)benzamido) propanoate]	803 nM	1.177 µM	
CC(C)[C@@H](COc1ccc(-c2cc3ccccc3o2)cc1)Nc1ccc(C(=O)NCCC(=O)O)cc1 [Compound 1-2, (S)-3-(4-((1-(4-(benzofuran-2-yl)phenoxy)-3-methylbutan-2-yl)amino)benzamido)propanoic Acid]	207 nM	0.1956 µM	
CC[C@H](C)[C@@H](COc1ccc(-c2ccc(C(C)(C)C)cc2)cc1)Nc1ccc(C(=O)NCCC(=O)O)cc1 [Compound 1-3, 3-(4-(((2S,3S)-1-((4′-(tert-butyl)-[1,1′-biphenyl]-4-yl)oxy)-3-methylpentan-2-yl)amino)benzamido)propanoic Acid]	319 nM	0.8844 µM	
CC[C@H](C)[C@@H](COc1ccc(-c2cc3ccccc3o2)cc1)Nc1ccc(C(=O)NCCC(=O)O)cc1 [Compound 1-4, 3-(4-(((2S,3S)-1-(4-(benzofuran-2-yl)phenoxy)-3-methylpentan-2-yl)amino)benzamido)propanoic Acid]	184 nM	0.528 µM	
CCC(C)[C@@H](COc1ccc(-c2ccc(C(F)(F)F)cc2)cc1)Nc1ccc(C(=O)NCCC(=O)O)cc1 (stereo partly drawn) [Compound 1-5, 3-(4-(((2S)-3-methyl-1-((4′-(trifluoromethyl)-[1,1′-biphenyl]-4-yl)oxy)pentan-2-yl)amino)benzamido)propanoic Acid]	213 nM	0.839 µM	
CC[C@H](C)[C@@H](COc1ccc(-c2ccc(OC(F)(F)F)cc2)cc1)Nc1ccc(C(=O)NCCC(=O)O)cc1 [Compound 1-6, 3-(4-(((2S,3S)-3-methyl-1-((4′-(trifluoromethoxy)-[1,1′-biphenyl]-4-yl)oxy)pentan-2-yl)amino)benzamido)propanoic Acid]	228 nM	1.078 µM	
CC[C@H](C)[C@@H](COc1ccc(-c2ccc(Cl)cc2Cl)cc1)Nc1ccc(C(=O)NCCC(=O)O)cc1 [Compound 1-7, 3-(4-(((2S,3S)-1-((2′,4′-dichloro-[1,1′-biphenyl]-4-yl)oxy)-3-methylpentan-2-yl)amino)benzamido)propanoic Acid]	139 nM	0.4948 µM	
CC[C@H](C)[C@@H](COc1ccc(-c2cc3ccccc3o2)cc1)Nc1ccc(C(=O)NCc2nnn[nH]2)cc1 [Compound 1-8]	98 nM	3.305 µM	
CC[C@H](C)[C@@H](COc1ccc(-c2cc3ccccc3o2)cc1)Nc1ccc(C(=O)NC[C@@H](O)C(=O)O)cc1 [Compound 1-9, (R)-3-(4-(((2S,3S)-1-(4-(benzofuran-2-yl)phenoxy)-3-methylpentan-2-yl)amino)benzamido)-2-hydroxypropanoic Acid]	260 nM	3.6 µM	
CCCC[C@@H](COc1ccc(-c2cc3ccccc3o2)cc1)Nc1ccc(C(=O)NCCC(=O)O)cc1 [Compound 1-10, (S)-3-(4-((1-(4-(benzofuran-2-yl)phenoxy)hexan-2-yl)amino)benzamido) propanoic Acid]	122 nM	0.6298 µM	
CCCC[C@@H](COc1ccc(-c2ccc(C(C)(C)C)cc2)cc1)Nc1ccc(C(=O)NCCC(=O)O)cc1 [Compound 1-11, (S)-3-(4-((1-((4′-(tert-butyl)-[1,1′-biphenyl]-4-yl)oxy)hexan-2-yl)amino)benzamido)propanoic Acid]	150 nM	0.3203 µM	
CC[C@H](C)[C@@H](COc1ccc(-c2ccc(F)cc2F)cc1)Nc1ccc(C(=O)NCCC(=O)O)cc1 [Compound 1-26]		0.213 µM	
CC[C@H](C)[C@@H](COc1ccc(-c2nnc(C(C)(C)C)o2)c(OC)c1)Nc1ccc(C(=O)NCCC(=O)O)cc1 [Compound 13-13, 3-(4-(((2S,3S)-1-(4-(5-(tert-butyl)-1,3,4-oxadiazol-2-yl)-3-methoxyphenoxy)-3-methylpentan-2-yl)amino)benzamido)propanoic Acid]	883 nM		
CCC(C)[C@@H](COc1nnc(-c2ccc(OC(F)(F)F)cc2)o1)Nc1ccc(C(=O)NCCC(=O)O)cc1 (stereo partly drawn) [Compound 22-8, 3-(4-(((2S)-3-methyl-1-((5-(4-(trifluoromethoxy)phenyl)-1,3,4-oxadiazol-2-yl)oxy)pentan-2-yl)amino)benzamido)propanoic Acid]			IC50 (glucagon receptor (GCGR)): > 30000 nM
CCC(C)[C@@H](COc1nnc(-c2ccc(C(C)(C)C)cc2)o1)Nc1ccc(C(=O)NCCC(=O)O)cc1 (stereo partly drawn) [Compound 22-9, 3-(4-(((2S)-1-((5-(4-(tert-butyl)phenyl)-1,3,4-oxadiazol-2-yl)oxy)-3-methylpentan-2-yl)amino)benzamido)propanoic Acid]			IC50 (glucagon receptor (GCGR)): > 30000 nM
Cc1cc(C)c(-c2ccc(C[C@H](Nc3ccc(C(=O)NCCS(=O)(=O)O)cc3)C(=O)Nc3ccc(C(C)(C)C)cc3)cc2)c(C)c1 [Compound 23-26, (S)-2-(4-((1-((4-(tert-butyl)phenyl)amino)-1-oxo-3-(2′,4′,6′-trimethyl-[1,1′-biphenyl]-4-yl)propan-2-yl)amino)benzamido)ethane-1-sulfonic Acid]			IC50 cAMP [1]: 39.3 µM
CCOC(=O)CCNC(=O)c1ccc(N[C@@H](Cc2c[nH]c3ccccc23)C(=O)Nc2ccc(-c3cc4ccccc4o3)cc2)cc1 [Compound 23-27, Ethyl (S)-3-(4-((1-((4-(benzofuran-2-yl)phenyl)amino)-3-(1H-indol-3-yl)-1-oxopropan-2-yl)amino)benzamido)propanoate]			IC50 cAMP [1]: 34.6 µM
CCOC(=O)CCNC(=O)c1ccc(N[C@@H](Cc2cccc3ccccc23)C(=O)NC(C)C)cc1 [Compound 24-11, Ethyl (S)-3-(4-((1-(isopropylamino)-3-(naphthalen-1-yl)-1-oxopropan-2-yl)amino)benzamido)propanoate]			IC50 cAMP ([1]; uM): >10 µM
CC(C)NC(=O)[C@H](Cc1cccc2ccccc12)Nc1ccc(C(=O)NCCC(=O)O)cc1 [Compound 24-12, (S)-3-(4-((1-(isopropylamino)-3-(naphthalen-1-yl)-1-oxopropan-2-yl)amino)benzamido)propanoic Acid]			IC50 cAMP ([1]; uM): >10 µM
CCOC(=O)CCNC(=O)c1ccc(N[C@@H](Cc2ccc3ccccc3c2)C(=O)NC(C)C)cc1 [Compound 24-13, Ethyl (S)-3-(4-((1-(isopropylamino)-3-(naphthalen-2-yl)-1-oxopropan-2-yl)amino)benzamido)propanoate]			IC50 cAMP ([1]; uM): >10 µM
CC(C)NC(=O)[C@H](Cc1ccc2ccccc2c1)Nc1ccc(C(=O)NCCC(=O)O)cc1 [Compound 24-14, (S)-3-(4-((1-(isopropylamino)-3-(naphthalen-2-yl)-1-oxopropan-2-yl)amino)benzamido)propanoic Acid]			IC50 cAMP ([1]; uM): >10 µM
